Results on 20 compounds are retold here after patent publication EP4737448A1, “SARM1 ENZYME ACTIVITY INHIBITOR AND USE THEREOF” (Artivila (ShenZhen) Innovation Center, Ltd., priority 2023, dated 2025).

Usually IC50 stands for the concentration needed to halve the response being measured. Lower therefore signals higher potency.

Assay [1] addresses T1, SARM1 (Homo sapiens, UniProt Q6SZW1).
T1 construct: the inventor produces full-length SARM1 for NADase activity assays and for screening; His (C); made in house; host or cells: HEK293 cells (transient transfection; digitonin lysate supernatant, not purified further)
T1 sequence (Q6SZW1 28-724): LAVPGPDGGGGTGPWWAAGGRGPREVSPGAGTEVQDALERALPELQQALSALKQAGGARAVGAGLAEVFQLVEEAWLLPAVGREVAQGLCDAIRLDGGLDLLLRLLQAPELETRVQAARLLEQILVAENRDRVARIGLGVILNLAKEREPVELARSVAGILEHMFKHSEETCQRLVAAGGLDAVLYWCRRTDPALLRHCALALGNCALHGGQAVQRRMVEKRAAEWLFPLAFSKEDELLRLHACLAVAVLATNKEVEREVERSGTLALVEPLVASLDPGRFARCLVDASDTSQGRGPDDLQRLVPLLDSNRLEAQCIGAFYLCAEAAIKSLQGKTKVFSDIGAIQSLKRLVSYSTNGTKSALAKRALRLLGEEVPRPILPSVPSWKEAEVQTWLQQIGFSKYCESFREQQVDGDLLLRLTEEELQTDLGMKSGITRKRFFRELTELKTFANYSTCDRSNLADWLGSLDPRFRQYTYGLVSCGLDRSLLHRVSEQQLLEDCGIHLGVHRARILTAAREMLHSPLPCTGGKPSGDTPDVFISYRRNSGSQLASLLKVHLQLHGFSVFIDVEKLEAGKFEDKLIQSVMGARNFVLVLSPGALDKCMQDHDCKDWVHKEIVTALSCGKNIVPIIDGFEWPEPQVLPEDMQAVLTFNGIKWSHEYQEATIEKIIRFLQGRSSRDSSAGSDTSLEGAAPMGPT
The experiment in a line: In vitro biochemical assay for inhibiting SARM1 enzymatic activity (PC6 fluorescence, NAD substrate, NMN activator). As to conditions: 0.05 µg/mL SARM1, 50 µM NAD, 50 µM PC6, 50 µM NMN, 10 min pre-incubation, 30 min at room temperature. How it is done: Compounds to be tested were stocked at 200 µM or 10 mM (in DMSO), and further diluted to the desired compound concentration for the in vitro SARM1 enzyme assay and inhibitor screening.
The gene sequence encoding SARM1 protein was amplified by PCR and the PCR amplification product was constructed into the pcDNA3.1-HIS-C plasmid. This construction was completed by YouBio Biological Technology (Hunan, China).
HEK293 cells were cultured in DMEM in a 10 cm dish. The next day, cells were transfected with 15 µg of the pcDNA3.1-SARM1-HIS-C expression plasmid.
Cells were harvested 48 hours after the transfection. The SARM1 protein expressed in cells was obtained through cell lysis by digitonin, which was used for in vitro activity assay. The specific process was as follows:
Cells were digested and detached from the dish using trypsin-EDTA, centrifuged at 1000 rpm for 5 minutes, washed once with PBS, then resuspended in PBS containing 100 µM digitonin at 0.6 mL PBS for the cells in 10 cm dish and lysed for 5 min. The cells were added with trypan blue and observed under a microscope. More than 90% of the cells were confirmed to be lysed. The cells were centrifuged at 5000 rpm for 10 min, and the supernatant containing SARM1 protein was collected.
The compound was added into a solution of 50 mM Tris-HCl (pH 7.5) containing 0.05 µg/mL SARM1 to achieve a concentration of 200 µM, and then serially diluted 6 times, where each dilution was carried out by taking half of the previous solution and adding an equal volume of 50 mM Tris-HCl (pH 7.5) containing 0.05 µg/mL SARM1, yielding a set of final concentrations of the compound of either 200, 100, 50, 25, 12.5, 6.25 and 3.125 µM, or 200, 50, 12.5, 3.125, 0.78, 0.195 and 0.049 µM. No inhibitor was added in the control group. All mixtures were incubated at room temperature for 10 min.
Subsequently, 50 µM NAD, 50 µM PC6 as substrate and 50 µM NMN as activator were added to the SARM1 protein incubated with the inhibitor and reacted for 30 min at room temperature. Wherein, the aforementioned concentrations of each component represent their respective final concentrations in the reaction system
During the reaction, the fluorescence spectrum dynamics of PC6 was detected by a microplate reader, with excitation and emission wavelengths set at 390 nm and 520 nm, respectively. The activity of the protein was expressed as the reaction rate and half maximal inhibitory concentration was calculated. The higher the reaction rate, the stronger the protein activity, and the lower the inhibitory efficiency of the compound.
Dose-response curves for inhibition of SARM1 enzymatic activity for NAD by the compounds were plotted using the above method.

For assay [2], the system named is axons of dorsal root ganglia explants. The experiment in a line: Wallerian degeneration assay of axon in mouse DRG explant culture. It is filed as cell-based, C57BL/6 mice. As to conditions: 10 µM compound, 2 h pretreatment, 24 h post axonal transection. The procedure:
Dorsal root ganglia were dissected from two-month-old male C57BL/6 mice and placed into a 35-mm culture dish containing ice-cold HBSS buffer. Extra tissue surrounding each dorsal ganglion was removed using a scalpel, and the ganglia were cut into 2-3 explant pieces. These explants were seeded into wells of a 96-well plate pre-coated with 100 ng/mL Matrigel (Corning), added with 100 µL of DRG medium (Neurobasal medium (Gibco) containing 2% B-27 (Gibco), 1% GlutaMAX (Gibco) and 10 ng/mL NGF (MCE)), and cultured in a 37°C incubator for one week. The medium was half- replaced on the fourth day and the experiments were counted on the eighth day.
Refer to methods reported in literatures in the related art (Gerdts J, Sasaki Y, Vohra B, Marasa J, Milbrandt J. Image-based screening identifies novel roles for IkappaB kinase and glycogen synthase kinase 3 in axonal degeneration. J Biol Chem. 2011 Aug 12;286(32):28011-8) for the definition and measurement principle of the degeneration index of axon. In the present disclosure, the measurement method is detaild below.
0.1 µL of 10 mM compound to be tested was added to 100 µL of DRG medium to prepare a new medium containing 10 µM compound to be tested. The medium in the 96-well plate was removed and replaced with the new medium containing the compound to be tested. Explant pieces of dorsal ganglia were incubated with compounds in a 37°C incubator for 2 h of pre-protection. Following this 2-hour pretreatment, axons were transcted near the explants tissue piece using a glass microelectrode. At 0 h and 24 h post axonal transection, brightfield images of axons in the same region were captured using a microscope (Olympus) with 20× objective. Axonal integrity was assessed using an in-house developed script. The results were categorized based on the degree of protection into: (A) >50% and (B) 20-50%.

Compound `O=C1C(Cc2ccc(F)cc2F)CCN1c1ccc(-c2ccncc2)cc1` (stereo not shown) [Compound 41, 3-(2,4-difluorobenzyl)-1-(4-(pyridin-4-yl)phenyl)pyrrolidin-2-one] returned an IC50 in assay [1] of 1000 to 10000 nM. In addition, the “Degree of protection against axonal Wallerian Degeneration” value (from here on “Degree of protection”) in assay [2] was “B ((B) 20-50%)”.

Compound `O=C1C(Cc2ccc(Cl)cc2)CCCN1c1ccc(-c2ccncc2)nn1` (stereo not shown) [Compound 53, 3-(4-chlorobenzyl)-1-(6-(pyridin-4-yl)pyridazin-3-yl)piperidin-2-one] returned an IC50 in assay [1] of less than 1000 nM. For the same compound, the “Degree of protection” value in assay [2] is recorded as “B ((B) 20-50%)”.

In assay [1], `O=C1C(Cc2ccc(F)cc2)CCN1c1ccc(-c2ccncc2)nn1` (stereo not shown) [Compound 55, 3-(4-fluorobenzyl)-1-(6-(pyridin-4-yl)pyridazin-3-yl)pyrrolidin-2-one] yielded an IC50 of less than 1000 nM. Besides, the “Degree of protection” value in assay [2] is on record as “B ((B) 20-50%)”.

As to `S=C1C(Cc2ccc(Cl)cc2)CCN1c1ccc(-c2ccncc2)nn1` (stereo not shown) [Compound 58, 3-(4-chlorobenzyl)-1-(6-(pyridin-4-yl)pyridazin-3-yl)pyrrolidin-2-thione], in assay [1], the IC50 was less than 1000 nM. Besides, the “Degree of protection” value in assay [2] is given as “B ((B) 20-50%)”.

With `O=C1N(Cc2ccc(Cl)cc2)CCN1c1ccc(-c2ccncc2)nn1` [Compound 59, 1-(4-chlorobenzyl)-3-(6-(pyridin-4-yl)pyridazin-3-yl)imidazolidin-2-one], the IC50 in assay [1] is less than 1000 nM. Further, the “Degree of protection” value in assay [2] was “B ((B) 20-50%)”.

In turn, `O=C1C(Cc2ccc(C(F)(F)F)cc2)CCN1c1ccc(-c2ccncc2)nn1` (stereo not shown) [Compound 60] registered an IC50 in assay [1] of less than 1000 nM. In addition, the “Degree of protection” value in assay [2] is reported as “B ((B) 20-50%)”.

`O=C1C(Cc2ccc(Cl)c(F)c2)CCN1c1ccc(-c2ccncc2)nn1` (stereo not shown) [Compound 62] gave an IC50 in assay [1] of less than 1000 nM. Moreover, the “Degree of protection” value in assay [2] is listed as “B ((B) 20-50%)”.

In assay [1], `O=C1C(Cc2ccc(Cl)nc2)CCN1c1ccc(-c2ccncc2)nn1` (stereo not shown) [Compound 64] came in with an IC50 of less than 1000 nM. In addition, the “Degree of protection” value in assay [2] is given as “A ((A) >50%)”.

Consider `O=C1C(Cc2ccccc2)CCN1c1ccc(-c2ccncc2)nn1` (stereo not shown) [Compound 65], for which the IC50 in assay [1] is less than 1000 nM. Also, the “Degree of protection” value in assay [2] was “B ((B) 20-50%)”.

Turning to `O=C1C(Cc2ccc(Cl)s2)CCN1c1ccc(-c2ccncc2)nn1` (stereo not shown) [Compound 66], the IC50 in assay [1] was less than 1000 nM. Further, in assay [2], the “Degree of protection” value is listed as “A ((A) >50%)”.

In assay [1], `O=C1C(Cc2ccc(F)c(F)c2)CCN1c1ccc(-c2ccncc2)nn1` (stereo not shown) [Compound 67] displayed an IC50 of less than 1000 nM. The “Degree of protection” value in assay [2] was “A ((A) >50%)”.

In the case of `O=C1C(Cc2ccc(Cl)cc2F)CCN1c1ccc(-c2ccncc2)nn1` (stereo not shown) [Compound 69], the IC50 in assay [1] was less than 1000 nM. For the same compound, the “Degree of protection” value in assay [2] is reported as “B ((B) 20-50%)”.

Compound `O=C1C(Cc2ccc(F)cc2F)CCN1c1ccc(-c2ccncc2)nn1` (stereo not shown) [Compound 70] registered a half-inhibitory concentration (IC50) in assay [1] of less than 1000 nM. The “Degree of protection” value in assay [2] is reported as “B ((B) 20-50%)”.

`O=C1C(Cc2cc(F)c(F)c(F)c2)CCN1c1ccc(-c2ccncc2)nn1` (stereo not shown) [Compound 71] displayed an IC50 in assay [1] of less than 1000 nM. Besides, the “Degree of protection” value in assay [2] was “A ((A) >50%)”.

For `O=C1C(Cc2cc(F)c(F)c(F)c2)CCN1c1ccc(-c2ccncc2)cc1` (stereo not shown) [Compound 72], the IC50 in assay [1] is less than 1000 nM. In addition, the “Degree of protection” value in assay [2] is given as “A ((A) >50%)”.

Regarding `O=C1C(Cc2ccc(Cl)cc2)CCN1c1ccc(-c2ccncc2F)nn1` (stereo not shown) [Compound 75, 3-(4-chlorobenzyl)-1-(6-(3-fluoropyridin-4-yl)pyridazin-3-yl)pyrrolidin-2-one], the IC50 in assay [1] was less than 1000 nM. For the same compound, the “Degree of protection” value in assay [2] is recorded as “A ((A) >50%)”.

The compound `O=C1C(Cc2ccc(Cl)cc2)CCN1c1ccc(-c2ccncc2Cl)nn1` (stereo not shown) [Compound 76, 3-(4-chlorobenzyl)-1-(6-(3-chloropyridin-4-yl)pyridazin-3-yl)pyrrolidin-2-one] gave an IC50 in assay [1] of less than 1000 nM. For the same compound, the “Degree of protection” value in assay [2] is “B ((B) 20-50%)”.

In assay [1], `[2H]C(c1ccc(Cl)cc1)C1([2H])CCN(c2ccc(-c3ccncc3)cc2)C1=O` (stereo not shown) [Compound 80, 3-((4-chlorophenyl)methyl-deutero)-1-(4-(pyridin-4-yl)phenyl)-3-deutero-pyrrolidin-2-one] displayed a 50% inhibitory concentration (IC50) of 1000 to 10000 nM. For the same compound, the “Degree of protection” value in assay [2] was “B ((B) 20-50%)”.

Turning to `[2H]C1(Cc2ccc(F)c(F)c2)CCN(c2ccc(-c3ccncc3)cc2)C1=O` (stereo not shown) [Compound 83, 3-(3,4-difluorobenzyl)-1-(4-(pyridin-4-yl)phenyl)-3-deutero-pyrrolidin-2-one], the IC50 in assay [1] is less than 1000 nM. In assay [2], the “Degree of protection” value is “A ((A) >50%)”.

In the case of `O=C1N(c2ccc(-c3ccncc3)cc2)CCC1(O)Cc1ccc(F)c(F)c1` (stereo not shown) [Compound 84, 3-(3,4-difluorobenzyl)-3-hydroxy-1-(4-(pyridin-4-yl)phenyl)pyrrolidin-2-one], the 50% inhibitory concentration (IC50) in assay [1] was in the range of 1000 to 10000 nM. Further, the “Degree of protection” value in assay [2] was “B ((B) 20-50%)”.
